# Experimental data published in patent publication US6284910A, “Farnesyl pyrophosphate analogs” (University of Kentucky Research Foundation, priority 1999, dated 2001).
# Entries after “also recorded” stand apart in the source; their conditions may differ.
# What was measured:
# [1] = target: T1, squalene synthase (Bos taurus, UniProt Q32KR6); assay: Conversion of [^3 H]AGPP to organic soluble products by squalene synthase; assay type: biochemical, bovine; conditions: in vitro; listed as [^3 H]AGPP
# T1 construct: squalene synthase activity present in bovine brain microsome fractions; from tissue; host or cells: bovine brain microsomes (crude)
# T1 sequence (Q32KR6 1-417): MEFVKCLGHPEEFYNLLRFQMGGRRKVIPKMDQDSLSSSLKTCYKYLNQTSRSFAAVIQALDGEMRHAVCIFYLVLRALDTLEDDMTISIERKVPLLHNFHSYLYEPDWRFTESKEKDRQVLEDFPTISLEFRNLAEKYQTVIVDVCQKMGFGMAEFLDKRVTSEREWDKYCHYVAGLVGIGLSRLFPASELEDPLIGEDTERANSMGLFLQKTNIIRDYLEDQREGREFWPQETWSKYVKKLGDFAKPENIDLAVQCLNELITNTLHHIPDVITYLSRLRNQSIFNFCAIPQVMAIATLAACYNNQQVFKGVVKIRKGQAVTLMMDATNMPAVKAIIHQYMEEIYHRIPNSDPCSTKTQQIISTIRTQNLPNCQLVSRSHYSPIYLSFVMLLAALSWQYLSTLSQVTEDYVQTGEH
# Description: Assay for Squalene Synthase Activity--Initial rates of squalene synthase activity present in bovine brain microsome fractions were assayed as previously described (19) with minor modifications. […] […] Assay mixtures were incubated for 30 min at 37° C., and the reactions terminated by the addition of 50 μl of 40% (wt/vol) KOH and then 100 μl of 95% ethanol. The resulting mixtures were incubated at 60° C. for 2 h and then cooled to room temperature. Authentic carrier squalene (20 μg) was added to each reaction tube, which were then extracted three times with petroleum ether. The lipid extracts were pooled, washed with water three times, and evaporated under a stream of N2. The lipid residue was redissolved in 100 μl CHCl3 /CH3 OH (2:1 vol/vol) and an aliquot (30 μl) was taken to determine the amount of labeled lipid formed by scintillation spectrometry. The remaining sample was analyzed on Silica gel G 60 TLC plates by developing with hexane (33). In all analyses the squalene standard was located by anisaldehyde spray reagent (34), and radioactive zones were located with a Bioscan Imaging System 200-IBM.
# Some of the previously characterized FTase inhibitors, particularly those competitive for FPP binding, have been described as inhibitors of squalene synthase, an enzyme that utilizes FPP and is an important secondary regulatory protein in the cholesterol biosynthetic pathway (38).
# [2] = tested on: GGTase I; assay: Transfer of [^3 H]AGPP by GGTase I to H-Ras-CVLL; assay type: biochemical
# [3] = target: T2, recombinant GGTase I (Rattus norvegicus, UniProt P53610+Q04631); assay: Inhibition of CAAX GGTase I transfer of [^3 H]geranylgeranyl from [^3 H]GGPP to H-Ras-CVLL; assay type: biochemical
# T2 construct: 6xHis (N); made in house; host or cells: Sf9 insect cells (baculovirus)
# Description: The assay mixtures contained (in a final volume of 25 μl) various components as described in "Experimental Procedures". After incubation for 15 min at 37° C., the amount of [^3 H]prenyl group transferred to the appropriate protein substrate [H-Ras (CVLS) for FTase and H-Ras (CVLL) for CAAX GGTase] was measured by precipitation with ethanol-HCl. The assays contained 10 ng recombinant rat FTase, 5 μM H-Ras, and 0.6 μM [^3 H]FPP (33,000 dpm/pmol) or 100 ng recombinant rat CAAX GGTase, 5 μM H-Ras CVLL, and 1 μM [^3 H]GGPP (33,000 dpm/pmol) and the indicated concentration of unlabeled AGPP. […] Each value is the average of duplicate incubations and is representative of two separate experiments.
# Unless otherwise stated, each reaction contained the following components in a final volume of 25 μl: 50 mM Tris-HCl (pH 7.4), 5 mM dithiothreitol, 20 μM Zwittergent (3-14), 1 μM [^3 H]GGPP (33,000 dpm/pmol; American Radiochemical Co.), 5 μM p21^H-ras CVLL, 5 μM ZnCl2, 5 mM MgCl2, 100 ng recombinant CAAX GGTase-1, and the indicated amount of unlabeled AGPP. Following incubation at 37° C. for 15 min, the amount of [^3 H]geranylgeranyl transferred was measured by ethanol-HCl precipitation followed by filtration on glass fiber filters. A blank value was determined in parallel incubation mixtures containing no enzyme and was subtracted from each reaction.
# The assays contained 10 ng recombinant rat FTase, 5 μM H-Ras, and 0.6 μM [^3 H]FPP (33,000 dpm/pmol) or 100 ng recombinant rat CAAX GGTase, 5 μM H-Ras CVLL, and 1 μM [^3 H]GGPP (33,000 dpm/pmol) and the indicated concentration of unlabeled AGPP.
# [4] = target: FTase (Rattus norvegicus, UniProt Q02293+Q04631); assay: Inhibition of FTase-catalyzed transfer of [^3 H]AGPP to p21^H-ras; assay type: biochemical; set-up: H-Ras is only the protein substrate; conditions: non-radiolabeled compound, time and concentration dependent transfer
# Description: Assay for Farnesyltransferase Activity--Farnesyltransferase activity was assayed by measuring the amount of [^3 H]farnesyl or [^3 H]anilinogeranyl transferred from [^3 H]FPP or [^3 H]AGPP to recombinant p21^H-ras, as described previously (31). Unless otherwise stated, each reaction mixture contained the following components in a final volume of 25 μl: 50 mM Tris (pH 7.4), 20 mM KCl, 0.2% octyl β-glucopyranoside, 1 mM dithiothreitol, 10-20 ng recombinant FTase, 5 μM p21^Ha-ras, 3 mM MgCl2, 50 μM ZnCl2, and 0.6 μM [^3 H]FPP (33,000 dpm/pmol; American Radiochemical Co.) or 0.1-5 μM [^3 H]AGPP (37,400 dpm/pmol). Following incubation for the indicated times at 37° C., the amount of [^3 H]prenyl transferred was measured by ethanol-HCl precipitation and filtration on glass fiber filters with modification as previously described (19). A blank value was determined in parallel incubation mixtures containing no enzyme. This blank value was subtracted from each reaction before calculating pmol [^3 H]prenyl transferred.
# The observed inhibition kinetics could be a manifestation of the ability of AGPP to act as an alternative substrate for FTase. To evaluate the potential of AGPP to serve as a substrate of FTase, [^3 H]-AGPP was prepared by a similar route as described above, incorporating tritium with a specific activity of 17 Ci/mmol (synthesis to be reported elsewhere). […] The incorporated radioactivity was detected as a band of the expected molecular weight of farnesylated p21^H-ras on SDS-polyacrylamide gels (FIG. 4A, inset). […] The concentration of [^3 H]AGPP that gave half-maximal reaction velocity was approximately 0.5 μM (FIG. 4B).
compound,measurement,setting,value
"C/C(=C\COP(=O)(O)OP(=O)(O)O)CC/C=C(\C)CNc1ccccc1 [AGPP, (E,E)-8-Aniline-3,7-dimethyl-2,6-octadiene pyrophosphate]",conversion to organic soluble products,[1],showed no activity; also recorded: failed to detect any conversion
same,"transfer by GGTase I, in words",[2],transferred by GGTase I to H-Ras-CVLL with a low efficiency
same,IC50,"[3]; 1 μM [^3 H]GGPP, 5 μM H-Ras CVLL, 37° C., 15 min",31 µM
same,GGTase I activity remaining,"[3]; AGPP concentrations of greater than 100 μM, 15 min",approximately 20%
same,selectivity: better inhibitor of FTase than GGTase I,[3]; FTase vs GGTase I,50 fold
same,"inhibition of transfer of [^3 H]AGPP to p21^H-ras, in words",[4],found to inhibit
